From patent US9458137B2, “Substituted indol-5-ol derivatives and their therapeutical applications” (NantBioScience, Inc., priority 2012, dated 2016)

System: AN3 human endometrial carcinoma carcinoma xenograft
Experiment: AN3 endometrial carcinoma xenograft
Assay type: in vivo, nude mouse
Settings: AN3 xenograft
Text: This example assesses NTW-3475's anti-tumor activity using a scid mouse xenograft models for leukemias and nude mouse xenograft models of endometrial, pancreatic and thyroid carcinomas. NTW-3475 combination therapy was also studied in murine xenografts.
FIGS. 39-41 depict the results of various concentrations of NTW-3456 on the AN3 nude mouse/xenograft model of endometrial carcinoma.

In the case of `Cc1cc2c(F)c(Oc3nc(Nc4cc(C5CC5)[nH]n4)cc(N4CCN(C)CC4)n3)cc(F)c2[nH]1` [NTW-3475], the anti-tumor effect is reported as “anti-tumor effect”.
